Data as given in paper PMC6278539, “Selective Inhibition of Human AKR1B10 by n-Humulone, Adhumulone and Cohumulone Isolated from Humulus lupulus Extract” (Molecules, 2018).

Key:
[1] = target: T1, AKR1A1 (Homo sapiens, UniProt P14550); experiment: AKR1A1 inhibition, DL-glyceraldehyde reduction (NADPH decrease at 340 nm); assay type: biochemical; conditions: AKR1A1, Glyceraldehyde [3.6 mM]
T1 construct: 6xHis; made in house; host or cells: E. coli BL21 (DE3)
T1 sequence (P14550 1-325): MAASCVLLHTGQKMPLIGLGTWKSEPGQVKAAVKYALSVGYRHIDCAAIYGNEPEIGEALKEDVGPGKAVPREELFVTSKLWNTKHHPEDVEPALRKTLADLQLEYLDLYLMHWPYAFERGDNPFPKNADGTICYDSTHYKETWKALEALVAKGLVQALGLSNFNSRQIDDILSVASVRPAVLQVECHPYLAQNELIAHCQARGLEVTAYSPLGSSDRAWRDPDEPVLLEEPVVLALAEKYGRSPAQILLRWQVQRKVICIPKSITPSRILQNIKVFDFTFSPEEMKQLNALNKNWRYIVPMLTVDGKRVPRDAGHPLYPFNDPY
Protocol: (§1) The carbonyl-reducing enzymes AKR1A1, AKR1B1, AKR1B10 were prepared in an Escherichia coli expression system according to previously published methods: plasmids of AKR1A1 and AKR1B1 were friendly gifts from Prof. Dr. Vladimir Wsol and Dr. Nina Kassner; information about production and purification of AKR1B10 [19] has been published before (sequences of all obtained plasmids containing the specific inserts were verified by sequencing (MWG Eurofins)). The plasmids were then transformed in E. coli BL21 (DE3) cells. For overexpression of 6× His-tagged enzymes, a 400 mL culture (containing the appropriate antibiotic; plasmid dependent) was grown to optical density of 0.6 at 600 nm at 37 °C. […] Purification progress was monitored by SDS-PAGE of the obtained fractions (not shown). Enzyme concentrations were determined using a Qubit 2.0 fluorometric quantitation system (Life Technologies, Carlsbad, CA, USA) according to the manufacturer’s instructions.
(§2) Catalytic properties were determined by measuring the decrease in absorbance at 340 nm (Cary 100 scan photometer, Varian, CA, USA). […]
(§3) For inhibition studies, stock solutions of inhibitors were prepared in H2O (iso-α-acid mixture) and DMSO (α-acid mixture and compounds 1–3 purified from the same mixture). […] The percentage of inhibition was calculated considering the activity in the absence of inhibitor to be 100%. […]

[2] = target: T2, AKR1B1 (Homo sapiens, UniProt P15121); experiment: AKR1B1 inhibition, DL-glyceraldehyde reduction (NADPH decrease at 340 nm); assay type: biochemical; conditions: AKR1B1, Glyceraldehyde [50 µM]
T2 construct: 6xHis; made in house; host or cells: E. coli BL21 (DE3)
Protocol: as §1, with “°C. Expression was induced by adding isopropyl-1-thio-galactopyranoside to the culture medium (final concentration of 1 mM). After 3 h, cells were harvested by centrifugation (6000× g, 15 min) and resuspended in 20 mL PBS-I buffer (20 mM Na2H2PO4, 500 mM NaCl, 10 mM imidazole, 10% v/v glycerol, pH 7.4). Cell disruption was performed by ultrasonication with cooling on ice to avoid heating.” for “°C.”
as §2, §3
For IC50 determination, experimental data were normalised and fitted to a sigmoidal curve as implemented in GraphPad Prism6 (GraphPad Software Inc., La Jolla, CA, USA). Whenever tight-binding inhibition was observed, the inhibition constant Ki was determined by fitting inhibition data to the Morrison equation [43]. […]

[3] = target: T3, AKR1B10 (Homo sapiens, UniProt O60218); experiment: AKR1B10 inhibition, DL-glyceraldehyde reduction (NADPH decrease at 340 nm); assay type: biochemical; conditions: for IC50 / Ki: AKR1B10, Glyceraldehyde [4.0 mM], mean ± SD; for Ki: read-out: Ki (Morrison); for Ratio AKR1A1/AKR1B10 / Ratio AKR1B1/AKR1B10: IC50-ratio, glyceraldehyde as substrate
T3 construct: 6xHis; made in house; host or cells: E. coli BL21 (DE3)
Protocol: (§4) The carbonyl-reducing enzymes AKR1A1, AKR1B1, AKR1B10 were prepared in an Escherichia coli expression system according to previously published methods: plasmids of AKR1A1 and AKR1B1 were friendly gifts from Prof. Dr. Vladimir Wsol and Dr. Nina Kassner; information about production and purification of AKR1B10 [19] has been published before (sequences of all obtained plasmids containing the specific inserts were verified by sequencing (MWG Eurofins)). The plasmids were then transformed in E. coli BL21 (DE3) cells. For overexpression of 6× His-tagged enzymes, a 400 mL culture (containing the appropriate antibiotic; plasmid dependent) was grown to optical density of 0.6 at 600 nm at 37 °C. Expression was induced by adding isopropyl-1-thio-galactopyranoside to the culture medium (final concentration of 1 mM). After 3 h, cells were harvested by centrifugation (6000× g, 15 min) and resuspended in 20 mL PBS-I buffer (20 mM Na2H2PO4, 500 mM NaCl, 10 mM imidazole, 10% v/v glycerol, pH 7.4). Cell disruption was performed by ultrasonication with cooling on ice to avoid heating. The sample was subsequently centrifuged at 100,000× g at 4 °C for 1 h. The obtained supernatants containing the respective enzymes were purified using Ni-affinity chromatography (ÄKTA-Purifier; Amersham Pharmacia, Uppsala, Sweden) using PBS-II buffer (20 mM Na2H2PO4, 500 mM NaCl, 500 mM imidazole, 10% v/v glycerol, pH 7.4). Purification progress was monitored by SDS-PAGE of the obtained fractions (not shown). Enzyme concentrations were determined using a Qubit 2.0 fluorometric quantitation system (Life Technologies, Carlsbad, CA, USA) according to the manufacturer’s instructions.
(§5) Catalytic properties were determined by measuring the decrease in absorbance at 340 nm (Cary 100 scan photometer, Varian, CA, USA). A reaction mixture without inhibitor consisted of different concentrations of DL-glyceraldehyde or farnesal, 200 μM NADPH, 0.1 M NaH2PO4 buffer (pH 7.4) and an appropriate amount of enzyme in a total assay volume of 0.8 mL. Final enzyme concentrations in the assay ranged from 222 nM (AKR1A1) to 899 nM (AKR1B10). KM values were obtained by fitting the kinetic data (mean ± SD from at least three experiments) to the Michaelis‒Menten model, as implemented in GraphPad Prism6 (GraphPad Software Inc., La Jolla, CA, USA).
(§6) For inhibition studies, stock solutions of inhibitors were prepared in H2O (iso-α-acid mixture) and DMSO (α-acid mixture and compounds 1–3 purified from the same mixture). […] When collecting data for dose–response curves initial velocities of DL-glyceraldehyde or farnesal reduction (substrate concentration at KM) in the presence of inhibitors were assayed as described above. The percentage of inhibition was calculated considering the activity in the absence of inhibitor to be 100%.
Initially, the half maximal inhibitory concentrations (IC50 values) were determined for each inhibitor in presence of each enzyme, using the shared substrate DL-glyceraldehyde (set to their specific KM; 3.6 mM, 50 μM and 4 mM for AKR1A1, AKR1B1 and AKR1B10, respectively) to assess specificity amongst the structurally similar members of the AKR-superfamily.
For IC50 determination, experimental data were normalised and fitted to a sigmoidal curve as implemented in GraphPad Prism6 (GraphPad Software Inc., La Jolla, CA, USA). Whenever tight-binding inhibition was observed, the inhibition constant Ki was determined by fitting inhibition data to the Morrison equation [43]. In order to verify the inhibitory potency, farnesal as an enzyme-specific physiological substrate for AKR1B10 (farnesal; KM = 5 µM) was used to determine inhibition parameters. Enzyme inhibition parameters were assayed as described above. The inhibition mechanism of each compound for AKR1B10 was analysed by plotting IC50-values at different substrate concentrations (at least five inhibitor and substrate concentrations). […]

[4] = target: T3, AKR1B10; experiment: AKR1B10-mediated farnesal reduction inhibition; assay type: biochemical; conditions: for IC50 / Ki: AKR1B10, Farnesal [5 µM], mean ± SD; for Mode of inhibition: AKR1B10, farnesal reduction
Protocol: as §4, §5, §6
For IC50 determination, experimental data were normalised and fitted to a sigmoidal curve as implemented in GraphPad Prism6 (GraphPad Software Inc., La Jolla, CA, USA). Whenever tight-binding inhibition was observed, the inhibition constant Ki was determined by fitting inhibition data to the Morrison equation [43]. In order to verify the inhibitory potency, farnesal as an enzyme-specific physiological substrate for AKR1B10 (farnesal; KM = 5 µM) was used to determine inhibition parameters. Enzyme inhibition parameters were assayed as described above. The inhibition mechanism of each compound for AKR1B10 was analysed by plotting IC50-values at different substrate concentrations (at least five inhibitor and substrate concentrations). All data obtained were plotted and analysed using GraphPad Prism6 (GraphPad Software Inc., La Jolla, CA, USA).

[5] = target: cyclooxygenase-2; parameters: method as in PMID 10631313; conditions: cited from earlier work
[6] = system: cyclooxygenase-1; parameters: method as in PMID 10631313; conditions: cited from earlier work
[7] = system: AKR1B10; parameters: method as in PMID 23123477; conditions: cited from earlier work
[8] = target: AKR1B10; parameters: method as in PMID 27665999; conditions: cited from earlier work

T3 sequence (O60218 whole entry): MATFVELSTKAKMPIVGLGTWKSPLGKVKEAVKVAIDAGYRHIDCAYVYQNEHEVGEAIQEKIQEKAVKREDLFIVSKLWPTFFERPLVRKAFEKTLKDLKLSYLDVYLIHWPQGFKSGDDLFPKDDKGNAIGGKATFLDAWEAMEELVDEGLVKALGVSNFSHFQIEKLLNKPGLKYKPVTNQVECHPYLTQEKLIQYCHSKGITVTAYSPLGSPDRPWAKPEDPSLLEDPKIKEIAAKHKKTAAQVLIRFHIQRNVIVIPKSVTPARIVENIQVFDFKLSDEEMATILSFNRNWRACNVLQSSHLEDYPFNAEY

## CC(C)=CCC1=C(O)C(O)(CC=C(C)C)C(=O)C(C(=O)C(C)C)=C1O (stereo in doubt) [Compound 2, cohumulone]
[1]
  IC50: > 100 µM
[2]
  IC50: > 125 µM
[3]
  IC50: 1.35 ± 0.07 µM
  Ki: 0.7 ± 0.09 µM
  Ratio AKR1A1/AKR1B10: >74
  Ratio AKR1B1/AKR1B10: >93
[4]
  IC50: 29.8 ± 1.72 µM
  Ki: 16.5 ± 1.74 µM
  Mode of inhibition: non-competitive

## CC(C)=CCC1C(=O)C(C(=O)CC(C)C)=C(O)C(O)(CC=C(C)C)C1=O (stereo not drawn) [Compound 3, n-humulone]
[1]
  IC50: > 100 µM
[2]
  IC50: > 125 µM
[3]
  IC50: 1.94 ± 0.1 µM
  Ki: 0.98 ± 0.12 µM
  Ratio AKR1A1/AKR1B10: >52
  Ratio AKR1B1/AKR1B10: >64
[4]
  IC50: 7.78 ± 0.43 µM
  Ki: 3.94 ± 0.33 µM
  Mode of inhibition: non-competitive
[5]
  IC50: 1.6 µM
[6]
  inhibition of cyclooxygenase-1: not inhibited at concentrations below 10 µM

## CCC(C)C(=O)C1=C(O)C(CC=C(C)C)=C(O)[C@](O)(CC=C(C)C)C1=O (stereo partly drawn) [Compound 1, adhumulone]
[2]
  IC50: > 125 µM
[3]
  IC50: 5.41 ± 0.42 µM
  Ki: 3.27 ± 0.52 µM
  Ratio AKR1A1/AKR1B10: ≥19
  Ratio AKR1B1/AKR1B10: >23
[4]
  IC50: 29.3 ± 1.53 µM
  Ki: 16.8 ± 1.33 µM
  Mode of inhibition: competitive

## CC(C)=CCc1c(O)cc2oc3cc(O)c(O)c(CC=C(C)C)c3c(=O)c2c1O [γ-mangostin]
[7]
  IC50: 0.018 µM

## CCCCC/C=C\C/C=C\C/C=C\C/C=C\CCCC(=O)O [arachidonic acid]
[8]
  Ki: 0.26 µM
